Experiment [1] concerns the target T1, Sucrase-isomaltase, intestinal (Rattus norvegicus, UniProt P23739). The experiment can be described thus: Inhibition of rat intestinal sucrase.
Experiment [2] deals with T1, Sucrase-isomaltase, intestinal. The experiment can be described thus: Inhibition of rat intestinal isomaltase.
Experiment [3] has as its target Sucrase-isomaltase, intestinal (Rattus norvegicus) (UniProt P23739). In words: Inhibition of rat intestinal sucrase at >384 uM.
For experiment [4], the target named is Lysosomal alpha-glucosidase (Rattus norvegicus) (UniProt Q6P7A9). In words: Inhibition of rat intestinal maltase at >384 uM.
Lysosomal alpha-glucosidase (Rattus norvegicus), sequence (Q6P7A9 whole entry): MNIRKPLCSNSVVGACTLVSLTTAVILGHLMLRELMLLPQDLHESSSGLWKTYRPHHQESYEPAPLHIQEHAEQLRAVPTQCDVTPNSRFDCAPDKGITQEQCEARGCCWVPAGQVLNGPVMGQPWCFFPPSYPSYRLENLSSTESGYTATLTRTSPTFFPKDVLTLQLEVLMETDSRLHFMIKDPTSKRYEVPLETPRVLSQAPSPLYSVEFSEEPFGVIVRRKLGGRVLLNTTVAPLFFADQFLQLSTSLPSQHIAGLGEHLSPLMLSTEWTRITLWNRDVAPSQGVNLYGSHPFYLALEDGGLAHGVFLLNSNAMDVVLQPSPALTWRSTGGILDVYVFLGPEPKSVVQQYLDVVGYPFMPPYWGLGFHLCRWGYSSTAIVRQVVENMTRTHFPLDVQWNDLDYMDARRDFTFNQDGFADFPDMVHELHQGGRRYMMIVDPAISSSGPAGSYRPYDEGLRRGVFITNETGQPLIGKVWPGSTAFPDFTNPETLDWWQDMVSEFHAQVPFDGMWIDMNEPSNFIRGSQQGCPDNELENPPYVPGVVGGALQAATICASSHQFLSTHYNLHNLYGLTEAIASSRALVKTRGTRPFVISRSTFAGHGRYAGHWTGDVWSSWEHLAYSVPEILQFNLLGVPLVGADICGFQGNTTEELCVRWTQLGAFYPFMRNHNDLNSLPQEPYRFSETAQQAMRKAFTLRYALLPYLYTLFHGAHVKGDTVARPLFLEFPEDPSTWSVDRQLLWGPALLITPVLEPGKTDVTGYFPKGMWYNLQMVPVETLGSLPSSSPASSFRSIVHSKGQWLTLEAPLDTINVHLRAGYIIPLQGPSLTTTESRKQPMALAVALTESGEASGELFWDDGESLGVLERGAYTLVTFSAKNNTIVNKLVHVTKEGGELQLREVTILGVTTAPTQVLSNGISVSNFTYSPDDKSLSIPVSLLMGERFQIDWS

T1 sequence (P23739 1-1013 limits assumed): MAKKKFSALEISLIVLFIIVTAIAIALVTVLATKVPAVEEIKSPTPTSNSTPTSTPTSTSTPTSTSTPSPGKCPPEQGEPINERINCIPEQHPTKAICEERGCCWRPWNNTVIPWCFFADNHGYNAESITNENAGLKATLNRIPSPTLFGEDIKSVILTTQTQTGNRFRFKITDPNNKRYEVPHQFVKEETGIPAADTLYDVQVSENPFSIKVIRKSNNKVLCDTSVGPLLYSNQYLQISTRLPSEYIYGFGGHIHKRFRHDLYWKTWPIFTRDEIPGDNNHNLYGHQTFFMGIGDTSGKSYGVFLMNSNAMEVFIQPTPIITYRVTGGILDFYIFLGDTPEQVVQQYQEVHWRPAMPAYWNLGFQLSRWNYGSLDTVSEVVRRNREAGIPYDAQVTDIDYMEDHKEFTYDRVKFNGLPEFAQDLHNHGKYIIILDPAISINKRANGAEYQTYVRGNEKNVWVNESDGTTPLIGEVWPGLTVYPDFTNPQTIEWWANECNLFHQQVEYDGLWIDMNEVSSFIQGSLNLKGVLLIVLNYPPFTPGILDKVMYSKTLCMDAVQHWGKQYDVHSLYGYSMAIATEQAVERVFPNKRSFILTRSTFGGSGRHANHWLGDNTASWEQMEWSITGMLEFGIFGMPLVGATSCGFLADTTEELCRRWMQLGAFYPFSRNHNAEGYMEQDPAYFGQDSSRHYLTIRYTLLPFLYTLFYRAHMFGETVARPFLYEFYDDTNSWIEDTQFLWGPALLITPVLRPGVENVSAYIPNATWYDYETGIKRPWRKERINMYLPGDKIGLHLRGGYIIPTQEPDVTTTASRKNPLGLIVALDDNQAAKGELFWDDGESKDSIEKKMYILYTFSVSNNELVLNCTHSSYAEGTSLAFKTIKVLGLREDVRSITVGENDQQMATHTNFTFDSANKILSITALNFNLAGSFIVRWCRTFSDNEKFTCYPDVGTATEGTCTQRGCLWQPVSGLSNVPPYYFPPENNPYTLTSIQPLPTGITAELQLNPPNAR
T1 sequence (P23739 1014-1841 limits assumed): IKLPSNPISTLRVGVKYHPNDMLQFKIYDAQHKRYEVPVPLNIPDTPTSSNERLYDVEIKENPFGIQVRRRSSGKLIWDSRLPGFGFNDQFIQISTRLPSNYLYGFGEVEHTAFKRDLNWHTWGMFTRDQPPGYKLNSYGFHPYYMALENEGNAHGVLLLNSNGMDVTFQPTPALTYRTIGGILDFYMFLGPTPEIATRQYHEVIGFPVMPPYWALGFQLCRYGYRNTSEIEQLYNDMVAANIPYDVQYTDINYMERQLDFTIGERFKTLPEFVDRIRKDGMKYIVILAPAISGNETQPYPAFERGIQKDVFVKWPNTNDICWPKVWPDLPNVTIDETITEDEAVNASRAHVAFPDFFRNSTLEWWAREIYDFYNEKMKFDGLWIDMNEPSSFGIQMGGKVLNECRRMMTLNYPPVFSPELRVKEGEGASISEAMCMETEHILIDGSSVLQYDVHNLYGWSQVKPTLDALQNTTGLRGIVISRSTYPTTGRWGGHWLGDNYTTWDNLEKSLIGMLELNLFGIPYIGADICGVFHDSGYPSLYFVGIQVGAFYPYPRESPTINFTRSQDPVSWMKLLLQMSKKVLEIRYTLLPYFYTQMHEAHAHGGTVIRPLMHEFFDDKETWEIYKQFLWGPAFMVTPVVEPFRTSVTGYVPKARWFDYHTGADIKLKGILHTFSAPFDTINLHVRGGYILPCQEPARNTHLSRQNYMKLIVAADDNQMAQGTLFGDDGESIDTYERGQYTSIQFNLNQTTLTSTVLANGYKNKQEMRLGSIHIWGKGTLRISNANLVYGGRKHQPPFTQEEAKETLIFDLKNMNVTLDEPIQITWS
Sucrase-isomaltase, intestinal (Rattus norvegicus), sequence (P23739 1-1013 limits assumed): as the sequence (P23739 1-1013 limits assumed) above
Sucrase-isomaltase, intestinal (Rattus norvegicus), sequence (P23739 1014-1841 limits assumed): as the sequence (P23739 1014-1841 limits assumed) above

Usually IC50 stands for the concentration at which inhibition is half-maximal. A high value points to a need for much substance. Take `OC[C@@H](O)[C@@H](O)[C@H](O)[C@H](O)C[S@+]1C[C@@H](O)[C@H](O)[C@H]1CO`: the IC50 in experiment [1] came out at 2.9 µM; in experiment [2], 1 µM.
On to `O=S(=O)([O-])OC[C@@H](O)C[S@+]1C[C@@H](O)[C@H](O)[C@H]1CO`, for which the IC50 in experiment [1] and in experiment [2] was greater than 329 µM in each case.
Usually inhibition stands for the share of the control response that was lost under treatment. Turning to `OC[C@@H](O)C[S@+]1C[C@@H](O)[C@H](O)[C@H]1CO`, the IC50 in experiment [1] is greater than 384 µM; in experiment [2], 52.9 µM. The same compound had an inhibition in experiment [3] of 34.5%.
Consider `OC[C@@H]1[C@@H](O)[C@H](O)C[S@@+]1C[C@@H](O)[C@H](O)[C@H](O)[C@@H](O)CO`, for which the IC50 worked out at 0.3 µM in experiment [1] and 1 µM in experiment [2].
Regarding `O=S(=O)([O-])O[C@@H]([C@H](O)[C@H](O)[C@@H](O)CO)[C@H](O)C[S+]1C[C@@H](O)[C@H](O)[C@H]1CO` (stereo partly drawn) [KOTALANOL], the IC50 was 0.75 µM in experiment [1] and 5.7 µM in experiment [2].
`OC[C@@H]1[C@@H](O)[C@H](O)C[S@@+]1C[C@@H](O)[C@@H](O)[C@H](O)[C@H](O)[C@@H](O)CO` [NEOKOTALANOL]: the results for the IC50 in experiment [1] and in experiment [2] were 4.5 µM and 1.8 µM, respectively.
With `OC[C@@H]1[C@@H](O)[C@H](O)C[S@@+]1C[C@@H](O)[C@@H](O)[C@H](O)[C@@H](O)CO` [NEOPONKORANOL], the IC50 in experiment [1] came to 1 µM; in experiment [2] it was 1.4 µM.
Taken in the same sequence, the figures for `[O-][C@@H](CO)[C@H](O)C[S@+]1C[C@@H](O)[C@H](O)[C@H]1CO` [NEOSALACINOL] were 1.3 µM and 0.3 µM.
On to `OC[C@H](O)C[S@+]1C[C@@H](O)[C@H](O)[C@H]1CO` [NEOSALAPRINOL], for which the IC50 is 90 µM in experiment [1] and 6.5 µM in experiment [2]. Also, the inhibition in experiment [4] stood at 35%.
On to `O=S(=O)([O-])O[C@@H]([C@H](O)[C@@H](O)CO)[C@H](O)C[S@+]1C[C@@H](O)[C@H](O)[C@H]1CO` [PONKORANOL], for which the results for the IC50 in experiment [1] and in experiment [2] were 0.29 µM and 2.6 µM, respectively.
As for `O=S(=O)([O-])O[C@@H](CO)[C@H](O)C[S@+]1C[C@@H](O)[C@H](O)[C@H]1CO` [SALACINOL], the IC50 in experiment [1] worked out at 1.6 µM; in experiment [2], 1.3 µM.
Taken in the same sequence, the figures for `O=S(=O)([O-])OC[C@H](O)C[S@+]1C[C@@H](O)[C@H](O)[C@H]1CO` [SALAPRINOL] were greater than 329 µM and 15 µM.
Taken in the same sequence, the figures for `OCC(CO)N[C@H]1C[C@](O)(CO)[C@@H](O)[C@H](O)[C@H]1O` [VOGLIBOSE] were 0.2 µM and 2.1 µM.

For the origin of these results see ChEMBL document CHEMBL1681764, “Isolation, structure identification and SAR studies on thiosugar sulfonium salts, neosalaprinol and neoponkoranol, as potent α-glucosidase inhibitors” (Bioorg Med Chem, 2011).
